Laboratory results published in patent US20100063466A1, “ABSORBENT ARTICLE” (SCA Hygiene Products AB, priority 2006, published 2010).

What was measured:
[1] = Measurement of water activity of salt solutions; format: physicochemical; details: different concentrations of salt in Elga-H2O; FIG. 8
Procedure: Water activity is measured as follows. The water activity meter is from Aqua Lab, Model Series 3 TE, […]. (U.S. Pat. No. 5,816,704). A specimen, a solution with different additions of different salts in Elga-H2O or synthetic urine, test liquid 2. was placed in a plastic cup. The quantity is not critical, but it is important that the bottom surface of the plastic cup is covered. The specimen is moved into the test chamber, which is closed, and the measurement commences. When the test value is stable, a green light flashes and the water activity can be read off digitally. The salts that were tested were: NaCl, KCl, NH4Cl, KC2H3O2 (K acetate), Na C2H3O2 (Na acetate).
The water activity was measured in Elga-H2O (USF Elga, distilled water) and synthetic urine, test liquid 2.
The water activity was measured according to method 4, but with different concentrations of salt in Elga-H2O.

[2] = test system: E. faecalis; details: FIG. 4
Text: (§1) Absorbent test specimens were punched out from an absorbent core produced in a test plant. A standard method for mat-forming of a core was used during production of the core in the test plant. The absorbent test specimen included a homogeneous mixture of fluff pulp, 0.72 g Weyerhauser pulp (NB 416) and 0.48 g of superabsorbent polymer (SAP) (Degussa SXM9135). The absorbent core, was compressed to a bulk of around 8-10 cm^3/g. The size of the punched-out test items was 5 cm in diameter, the weight was about 1.2 g.
(§2) 16 ml (corresponding to a maximum absorption capacity of a test specimen according to method 1) of test liquid 1 containing the bacteria were added to a test specimen placed in plastic tubs, and a lid was fitted on the tubs. The tubs were turned upside down and incubated in a warm cabinet at 35° C. After incubation for 0, 6 and 12 hours, the test samples were placed in a plastic bag with peptone water and the content was homogenized (agitated and worked up) in a stomacker for 3 minutes. The homogenate was diluted in dilution tubes with peptone water and a microbiological culture was spread on agar plates. Slanetz Bartley agar was used for E. faecalis, and Drigalski agar for E. coli and P. mirabilis. The specimens were incubated at 35° C. for 1-2 days before the colonies were counted and the log CFU/ml calculated. Control tests were also carried out with absorbent cores without NaCl.
(§3) Bacteria were cultured in nutrient broth and diluted to the desired concentration of about Log 3.3 in test liquid 1 (method 4). Absorbent test specimens were produced according to method 1. 29 (high), 22 (medium) and 12 (low) % by weight NaCl (% dry) were added to the core, corresponding to 3 (high), 2 (medium) and 1 (low) % by weight (% wet) in the wet product. This proportion also applies to the other examples. The bacterial growth was measured according to method 3.

[3] = test system: E. coli; details: FIG. 4
Text: as §1, §2, §3

[4] = test system: P. mirabilis; details: FIG. 4
Text: as §1, §2, §3

[5] = test system: Proteus mirabilis; details: 29% by weight of NaCl (% dry); after 6 and 8 hours; FIG. 5
Text: as §1
(§4) Absorbent test specimens were produced according to method 1.
as §4

[6] = 3% added salt (% wet), NaCl high, after 12 hours, 35° C, test liquid 1
[7] = 29, 22 and 12 % by weight NaCl (% dry), after 6 and 12 hours

In the case of `Cl.N` [NH4Cl], the “water activity as the concentrations of salt increase” value (“water activity … of salt increase” below) [1] is reported as “drops”.

With `CC(=O)[O-].[Na+]` [Na acetate] the “water activity … of salt increase” value [1] was “drops”.

In the case of `[Cl-].[Na+]` [NaCl], the “growth of E. faecalis” value [2, 6] is reported as < 5.5 log CFU/ml, the “growth of E. faecalis compared with the control tests” value [2, 7] is reported as “lower” and the “growth of E. coli” value [3, 6] is reported as < 5.5 log CFU/ml. For the same compound, the “growth of E. coli compared with the control tests” value [3, 7] was “lower”, the “growth of P. mirabilis” value [4, 6] was < 5.5 log CFU/ml and the “growth of P. mirabilis compared with the control tests” value [4, 7] was “lower”. The “development of NH3, ranking among specimens” value [5] was “lowest” and the “water activity … of salt increase” value [1] was “drops”.
